Patent US20150005281A1, “PYRIMIDINE-2,4-DIAMINE DERIVATIVES AS KINASE INHIBITORS” (Cellzome Limited, priority 2011, published 2015)

Tests used:
Assay type in all cases: binding
JAK1 = biological target: T1, JAK1 (Homo sapiens, UniProt P23458); assay: Kinobeads assay with immunodetection, JAK1; conditions: for IC50: Kinobeads assay, mixed Molt4/Ramos lysate, read-out: Inhibition values (IC50) JAK1
T1 construct: endogenous in cells; host or cells: Molt4 (ATCC CRL-1582) and Ramos (ATCC CRL-1596) cells; mixed lysate 1:2
Procedure, shortened: (§1)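 Steps: compound serially diluted 1:3 in DMSO; added with kinobeads to mixed Molt4/Ramos lysate; 3 h cold incubation; wash; SDS elution; antibody dot blot quantitation of each kinase; IC50 fitting.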

JAK2 = biological target: T2, JAK2 (Homo sapiens, UniProt O60674); assay: Kinobeads assay with immunodetection, JAK2; conditions: mixed Molt4/Ramos lysate, read-out: Inhibition values (IC50) JAK2
T2 construct: endogenous in cells; host or cells: Molt4 (ATCC CRL-1582) and Ramos (ATCC CRL-1596) cells; mixed lysate 1:2
Procedure, shortened: as §1

JAK3 = biological target: T3, JAK3 (Homo sapiens, UniProt P52333); assay: Kinobeads assay with immunodetection, JAK3; conditions: for IC50: Kinobeads assay, mixed Molt4/Ramos lysate, read-out: Inhibition values (IC50) JAK3
T3 construct: endogenous in cells; host or cells: Molt4 (ATCC CRL-1582) and Ramos (ATCC CRL-1596) cells; mixed lysate 1:2
T3 sequence (P52333 1-1124): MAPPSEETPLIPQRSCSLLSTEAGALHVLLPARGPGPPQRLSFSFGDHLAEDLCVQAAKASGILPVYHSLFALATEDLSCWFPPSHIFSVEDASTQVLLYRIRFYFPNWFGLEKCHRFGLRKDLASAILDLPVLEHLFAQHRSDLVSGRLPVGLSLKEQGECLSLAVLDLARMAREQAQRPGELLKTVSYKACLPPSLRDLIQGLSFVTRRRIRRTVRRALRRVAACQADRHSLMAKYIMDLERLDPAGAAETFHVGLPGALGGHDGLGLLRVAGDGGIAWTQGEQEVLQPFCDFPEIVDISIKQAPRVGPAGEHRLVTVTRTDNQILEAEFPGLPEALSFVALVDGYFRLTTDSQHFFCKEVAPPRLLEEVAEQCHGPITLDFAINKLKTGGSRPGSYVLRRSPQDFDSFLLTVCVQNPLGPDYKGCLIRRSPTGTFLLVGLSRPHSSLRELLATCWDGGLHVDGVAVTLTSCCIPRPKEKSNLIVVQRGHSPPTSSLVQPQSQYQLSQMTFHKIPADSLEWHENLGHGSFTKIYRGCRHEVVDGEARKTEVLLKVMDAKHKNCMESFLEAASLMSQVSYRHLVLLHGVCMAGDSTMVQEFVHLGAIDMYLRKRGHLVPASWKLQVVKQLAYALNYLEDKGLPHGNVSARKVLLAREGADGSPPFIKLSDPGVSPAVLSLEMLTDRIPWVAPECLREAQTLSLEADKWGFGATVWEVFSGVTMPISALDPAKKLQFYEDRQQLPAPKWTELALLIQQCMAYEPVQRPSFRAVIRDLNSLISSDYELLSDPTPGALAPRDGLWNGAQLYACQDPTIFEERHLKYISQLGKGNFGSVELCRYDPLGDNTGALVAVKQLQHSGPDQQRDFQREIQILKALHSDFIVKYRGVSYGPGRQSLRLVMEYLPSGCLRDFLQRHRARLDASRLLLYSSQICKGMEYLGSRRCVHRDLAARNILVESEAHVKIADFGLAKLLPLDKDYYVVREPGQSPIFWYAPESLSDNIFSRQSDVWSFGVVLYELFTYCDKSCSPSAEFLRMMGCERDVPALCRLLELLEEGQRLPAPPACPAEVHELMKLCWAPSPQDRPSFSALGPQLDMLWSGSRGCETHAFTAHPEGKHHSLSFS
Procedure, shortened: as §1

TYK2 = biological target: T4, TYK2 (Homo sapiens, UniProt P29597); assay: Kinobeads assay with immunodetection, TYK2; conditions: for IC50: Kinobeads assay, mixed Molt4/Ramos lysate, read-out: Inhibition values (IC50) Tyk2
T4 construct: endogenous in cells; host or cells: Molt4 (ATCC CRL-1582) and Ramos (ATCC CRL-1596) cells; mixed lysate 1:2
Procedure, shortened: as §1

T4 sequence (P29597 whole entry): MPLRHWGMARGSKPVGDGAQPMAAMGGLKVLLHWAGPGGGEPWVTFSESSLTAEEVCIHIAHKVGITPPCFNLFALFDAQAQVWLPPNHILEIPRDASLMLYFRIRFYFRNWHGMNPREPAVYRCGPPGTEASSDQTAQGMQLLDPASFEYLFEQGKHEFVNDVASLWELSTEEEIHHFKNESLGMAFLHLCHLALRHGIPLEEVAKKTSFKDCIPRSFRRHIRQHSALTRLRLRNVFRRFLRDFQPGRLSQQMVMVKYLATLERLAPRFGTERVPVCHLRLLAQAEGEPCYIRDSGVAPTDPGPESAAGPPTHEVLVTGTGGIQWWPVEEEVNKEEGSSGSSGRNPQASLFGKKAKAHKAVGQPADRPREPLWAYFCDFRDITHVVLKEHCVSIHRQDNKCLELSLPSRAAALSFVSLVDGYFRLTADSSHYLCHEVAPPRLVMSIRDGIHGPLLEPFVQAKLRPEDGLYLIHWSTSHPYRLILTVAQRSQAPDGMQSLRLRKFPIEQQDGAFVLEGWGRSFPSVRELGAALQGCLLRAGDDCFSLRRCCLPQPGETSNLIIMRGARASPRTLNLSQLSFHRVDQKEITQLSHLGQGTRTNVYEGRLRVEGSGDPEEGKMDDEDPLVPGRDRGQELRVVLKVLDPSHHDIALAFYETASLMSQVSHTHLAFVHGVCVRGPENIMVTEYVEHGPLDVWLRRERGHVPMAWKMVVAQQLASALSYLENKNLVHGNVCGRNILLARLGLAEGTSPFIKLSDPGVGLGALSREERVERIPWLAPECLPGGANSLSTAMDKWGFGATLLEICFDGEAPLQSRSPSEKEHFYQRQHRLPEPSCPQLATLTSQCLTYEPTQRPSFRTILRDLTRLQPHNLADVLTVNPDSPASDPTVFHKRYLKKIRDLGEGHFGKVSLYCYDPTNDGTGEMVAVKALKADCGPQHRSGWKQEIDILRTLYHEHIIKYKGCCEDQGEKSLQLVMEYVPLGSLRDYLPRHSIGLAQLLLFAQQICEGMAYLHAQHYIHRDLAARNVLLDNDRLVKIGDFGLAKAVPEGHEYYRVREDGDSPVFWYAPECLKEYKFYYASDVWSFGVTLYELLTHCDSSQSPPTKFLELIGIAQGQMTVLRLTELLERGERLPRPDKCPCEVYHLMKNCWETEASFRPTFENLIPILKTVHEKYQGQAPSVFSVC
T2 sequence (O60674 whole entry): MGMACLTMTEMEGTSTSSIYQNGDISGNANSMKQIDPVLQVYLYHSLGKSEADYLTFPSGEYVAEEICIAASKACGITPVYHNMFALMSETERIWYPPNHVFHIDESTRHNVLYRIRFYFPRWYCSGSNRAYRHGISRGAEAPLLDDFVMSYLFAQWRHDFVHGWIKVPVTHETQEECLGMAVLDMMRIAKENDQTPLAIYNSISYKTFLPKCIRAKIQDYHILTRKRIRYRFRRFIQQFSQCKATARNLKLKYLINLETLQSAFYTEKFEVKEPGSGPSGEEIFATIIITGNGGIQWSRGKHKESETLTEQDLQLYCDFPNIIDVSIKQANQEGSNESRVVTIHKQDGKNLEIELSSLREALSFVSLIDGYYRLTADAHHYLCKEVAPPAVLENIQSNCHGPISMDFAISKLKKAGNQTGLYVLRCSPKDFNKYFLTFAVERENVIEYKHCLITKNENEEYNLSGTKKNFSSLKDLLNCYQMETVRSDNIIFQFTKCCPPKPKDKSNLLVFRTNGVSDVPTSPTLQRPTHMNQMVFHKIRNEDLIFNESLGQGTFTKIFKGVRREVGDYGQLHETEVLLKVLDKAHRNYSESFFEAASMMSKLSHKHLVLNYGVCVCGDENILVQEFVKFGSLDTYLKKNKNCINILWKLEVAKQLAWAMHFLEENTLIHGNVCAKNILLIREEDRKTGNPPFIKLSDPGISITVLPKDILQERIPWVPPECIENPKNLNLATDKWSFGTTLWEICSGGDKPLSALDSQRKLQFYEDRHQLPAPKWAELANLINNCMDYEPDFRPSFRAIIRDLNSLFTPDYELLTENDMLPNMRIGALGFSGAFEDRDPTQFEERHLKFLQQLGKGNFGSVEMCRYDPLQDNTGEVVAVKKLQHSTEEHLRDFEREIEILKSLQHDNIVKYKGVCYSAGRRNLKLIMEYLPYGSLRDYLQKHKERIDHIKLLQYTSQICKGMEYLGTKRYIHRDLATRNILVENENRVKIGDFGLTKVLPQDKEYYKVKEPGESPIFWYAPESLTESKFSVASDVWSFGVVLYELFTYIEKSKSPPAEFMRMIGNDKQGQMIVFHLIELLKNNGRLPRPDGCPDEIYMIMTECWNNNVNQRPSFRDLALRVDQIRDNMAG
T1 sequence (P23458 whole entry): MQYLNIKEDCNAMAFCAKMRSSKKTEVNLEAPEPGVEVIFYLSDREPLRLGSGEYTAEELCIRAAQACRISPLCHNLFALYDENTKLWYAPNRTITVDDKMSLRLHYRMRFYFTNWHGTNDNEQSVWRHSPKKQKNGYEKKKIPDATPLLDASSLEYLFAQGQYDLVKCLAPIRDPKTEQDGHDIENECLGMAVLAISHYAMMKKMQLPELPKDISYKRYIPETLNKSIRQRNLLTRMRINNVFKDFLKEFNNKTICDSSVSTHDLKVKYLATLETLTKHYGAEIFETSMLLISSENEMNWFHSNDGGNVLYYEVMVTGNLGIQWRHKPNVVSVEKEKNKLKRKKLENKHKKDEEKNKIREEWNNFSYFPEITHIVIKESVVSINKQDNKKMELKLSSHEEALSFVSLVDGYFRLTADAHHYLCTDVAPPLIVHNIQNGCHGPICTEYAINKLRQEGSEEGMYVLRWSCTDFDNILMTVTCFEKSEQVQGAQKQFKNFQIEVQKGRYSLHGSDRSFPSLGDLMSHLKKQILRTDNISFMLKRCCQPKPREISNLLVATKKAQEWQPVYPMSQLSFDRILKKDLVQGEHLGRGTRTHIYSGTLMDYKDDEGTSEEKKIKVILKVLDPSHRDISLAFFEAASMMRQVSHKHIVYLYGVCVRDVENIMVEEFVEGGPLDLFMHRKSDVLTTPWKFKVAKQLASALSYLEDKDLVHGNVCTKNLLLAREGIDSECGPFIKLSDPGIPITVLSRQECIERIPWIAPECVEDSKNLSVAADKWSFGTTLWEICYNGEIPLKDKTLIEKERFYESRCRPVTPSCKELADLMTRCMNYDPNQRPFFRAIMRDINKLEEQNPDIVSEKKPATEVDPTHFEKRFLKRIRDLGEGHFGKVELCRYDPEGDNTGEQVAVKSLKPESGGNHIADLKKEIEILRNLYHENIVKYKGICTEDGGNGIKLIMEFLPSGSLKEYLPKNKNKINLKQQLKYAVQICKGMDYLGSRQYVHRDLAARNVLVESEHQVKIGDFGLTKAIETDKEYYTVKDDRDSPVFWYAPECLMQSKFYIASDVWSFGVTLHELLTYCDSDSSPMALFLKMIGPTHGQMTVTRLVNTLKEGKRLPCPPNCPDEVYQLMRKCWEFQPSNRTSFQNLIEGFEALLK

Row | Compound | Selectivity ratio over JAK2, JAK1 (JAK1) | IC50 (JAK1) | IC50 (JAK2) | IC50 (JAK3) | IC50 (TYK2) | Selectivity ratio over JAK2, Tyk2 (TYK2) | Selectivity ratio over JAK2, JAK3 (JAK3)
1 | CC(=O)N1CCC[C@H]1CNc1nc(Nc2cnn(CCO)c2)ncc1Cl [Example 9, (S)-1-(2-(((5-chloro-2-((1-(2-hydroxyethyl)-1H-pyrazol-4-yl)amino)pyrimidin-4-yl)amino)methyl)pyrrolidin-1-yl)ethanone] | JAK1 = 25 | 100 to 1000 nM | 1000 to 10000 nM | 100 to 1000 nM | 100 to 1000 nM | – | –
2 | CNC(=O)Cn1cc(Nc2ncc(Cl)c(NC[C@@H]3CCCN3)n2)cn1 [Example 65, (S)-2-(4-(5-chloro-4-(pyrrolidin-2-ylmethylamino)pyrimidin-2-ylamino)-1H-pyrazol-1-yl)-N-methylacetamide] | – | 1000 to 10000 nM | > 10000 nM | 1000 to 10000 nM | 1000 to 10000 nM | – | –
3 | Cn1cc(Nc2ncc(Cl)c(NCC3CCOCC3)n2)cn1 [Example 46, 5-chloro-N^2-(1-methyl-1H-pyrazol-4-yl)-N^4-((tetrahydro-2H-pyran-4-yl)methyl)pyrimidine-2,4-diamine] | JAK1 = 6 | 100 to 1000 nM | 1000 to 10000 nM | 100 to 1000 nM | 100 to 1000 nM | – | –
4 | CC(=O)N1CC[C@@H](CNc2nc(Nc3cnn(CCO)c3)ncc2Cl)C1 [Example 27, (S)-1-(3-(((5-chloro-2-((1-(2-hydroxyethyl)-1H-pyrazol-4-yl)amino)pyrimidin-4-yl)amino)methyl)pyrrolidin-1-yl)ethanone] | JAK1 = 23 | 100 to 1000 nM | 1000 to 10000 nM | 100 to 1000 nM | 100 to 1000 nM | – | –
5 | Cn1cc(Nc2ncc(Cl)c(NC[C@H]3CCN(CCS(C)(=O)=O)C3)n2)cn1 [Example 55, (R)-5-chloro-N^2-(1-methyl-1H-pyrazol-4-yl)-N^4-((1-(2-(methylsulfonyl)ethyl)pyrrolidin-3-yl)methyl)pyrimidine-2,4-diamine] | JAK1 = 11 | < 100 nM | 100 to 1000 nM | < 100 nM | 100 to 1000 nM | – | –
6 | CS(=O)(=O)N1CC(CNc2nc(Nc3cnn(CCO)c3)ncc2Cl)C1 [Example 19, 2-(4-((5-chloro-4-(((1-(methylsulfonyl)azetidin-3-yl)methyl)amino)pyrimidin-2-yl)amino)-1H-pyrazol-1-yl)ethanol] | – | 100 to 1000 nM | 1000 to 10000 nM | < 100 nM | 100 to 1000 nM | – | –
7 | Cc1cnc(Nc2cnn(CC(F)F)c2)nc1NC[C@H]1CCN(CCS(C)(=O)=O)C1 [Example 127, (R)—N^2-(1-(2,2-difluoroethyl)-1H-pyrazol-4-yl)-5-methyl-N^4-((1-(2-(methylsulfonyl)ethyl)pyrrolidin-3-yl)methyl)pyrimidine-2,4-diamine] | JAK1 = 83 | < 100 nM | 1000 to 10000 nM | 100 to 1000 nM | 100 to 1000 nM | – | –
8 | OCCn1cc(Nc2ncc(Cl)c(NCC3CCNC3)n2)cn1 (stereo in doubt) [Example 79, (R)-2-(4-((5-chloro-4-((pyrrolidin-3-ylmethyl)amino)pyrimidin-2-yl)amino)-1H-pyrazol-1-yl)ethanol] | JAK1 = 39 | 100 to 1000 nM | < 100 nM | 1000 to 10000 nM | 100 to 1000 nM | – | –

Continued, values first:

Row | Selectivity ratio over JAK2, JAK1 (JAK1) | IC50 (JAK1) | IC50 (JAK2) | IC50 (JAK3) | IC50 (TYK2) | Selectivity ratio over JAK2, Tyk2 (TYK2) | Selectivity ratio over JAK2, JAK3 (JAK3) | Compound
9 | JAK1 = 17 | 100 to 1000 nM | 1000 to 10000 nM | 100 to 1000 nM | 100 to 1000 nM | – | – | CC(=O)N1CCC[C@H]1CNc1nc(Nc2cnn(C)c2)ncc1Cl [Example 8, (S)-1-(2-(((5-chloro-2-((1-methyl-1H-pyrazol-4-yl)amino)pyrimidin-4-yl)amino)methyl)pyrrolidin-1-yl)ethanone]
10 | – | < 100 nM | 1000 to 10000 nM | 100 to 1000 nM | < 100 nM | Tyk2 = 38 | – | Cc1cnc(Nc2cnn(C)c2)nc1NC[C@@H]1CCCN1CCC#N [Example 106, (S)-3-(2-(((5-methyl-2-((1-methyl-1H-pyrazol-4-yl)amino)pyrimidin-4-yl)amino)methyl)pyrrolidin-1-yl)propanenitrile]
11 | – | < 100 nM | 1000 to 10000 nM | < 100 nM | < 100 nM | – | JAK3 = 160 | Cn1cc(Nc2ncc(Cl)c(NC[C@H]3CCCN3CCCC#N)n2)cn1 [Example 97, (R)-4-(2-(((5-chloro-2-((1-methyl-1H-pyrazol-4-yl)amino)pyrimidin-4-yl)amino)methyl)pyrrolidin-1-yl)butanenitrile]
12 | JAK1 = 150 | < 100 nM | > 10000 nM | 100 to 1000 nM | 100 to 1000 nM | – | – | Cc1cnc(Nc2cnn(C)c2)nc1NC[C@@H]1C[C@H](F)CN1C(=O)CC#N [Example 103, 3-((2S,4S)-4-fluoro-2-(((5-methyl-2-((1-methyl-1H-pyrazol-4-yl)amino)pyrimidin-4-yl)amino)methyl)pyrrolidin-1-yl)-3-oxopropanenitrile]
13 | JAK1 = 197 | < 100 nM | 1000 to 10000 nM | 100 to 1000 nM | < 100 nM | – | – | Cc1cnc(Nc2cnn(CC(F)F)c2)nc1NC[C@@H]1CCCN1C(=O)CCC#N [Example 125, (S)-4-(2-(((2-((1-(2,2-difluoroethyl)-1H-pyrazol-4-yl)amino)-5-methylpyrimidin-4-yl)amino)methyl)pyrrolidin-1-yl)-4-oxobutanenitrile]
14 | – | 1000 to 10000 nM | > 10000 nM | 1000 to 10000 nM | 1000 to 10000 nM | – | – | C=CC(=O)N1CCC[C@H]1CNc1nc(Nc2cnn(C)c2)ncc1Cl [Example 10, (S)-1-(2-(((5-chloro-2-((1-methyl-1H-pyrazol-4-yl)amino)pyrimidin-4-yl)amino)methyl)pyrrolidin-1-yl)prop-2-en-1-one]
15 | JAK1 = 26 | < 100 nM | 100 to 1000 nM | 100 to 1000 nM | < 100 nM | – | – | Cc1cnc(Nc2cnn(C)c2)nc1NC[C@@H]1C[C@H](F)CN1CCS(C)(=O)=O [Example 100, N^4-(((2S,4S)-4-fluoro-1-(2-(methylsulfonyl)ethyl)pyrrolidin-2-yl)methyl)-5-methyl-N^2-(1-methyl-1H-pyrazol-4-yl)pyrimidine-2,4-diamine]
16 | – | 100 to 1000 nM | 1000 to 10000 nM | 100 to 1000 nM | < 100 nM | Tyk2 = 80 | – | Cc1cnc(Nc2cnn(C)c2)nc1NC[C@H]1CCCN1CCC#N [Example 108, (R)-3-(2-(((5-methyl-2-((1-methyl-1H-pyrazol-4-yl)amino)pyrimidin-4-yl)amino)methyl)pyrrolidin-1-yl)propanenitrile]
17 | – | 100 to 1000 nM | 1000 to 10000 nM | < 100 nM | 100 to 1000 nM | – | JAK3 = 160 | C=CS(=O)(=O)N1CCCC[C@@H]1CNc1nc(Nc2cnn(C)c2)ncc1Cl [Example 45, (R)-5-chloro-N^2-(1-methyl-1H-pyrazol-4-yl)-N^4-((1-(vinylsulfonyl)piperidin-2-yl)methyl)pyrimidine-2,4-diamine]
18 | JAK1 = 96 | < 100 nM | 1000 to 10000 nM | 100 to 1000 nM | < 100 nM | – | – | Cc1cnc(Nc2cnn(C)c2)nc1NC[C@@H]1C[C@H](F)CN1C(=O)CCC#N [Example 104, 4-((2S,4S)-4-fluoro-2-(((5-methyl-2-((1-methyl-1H-pyrazol-4-yl)amino)pyrimidin-4-yl)amino)methyl)pyrrolidin-1-yl)-4-oxobutanenitrile]
